Measurements as given in ChEMBL document CHEMBL1770094, “Design, synthesis and antiproliferative activity of novel aminosubstituted benzothiopyranoisoindoles” (Bioorg Med Chem Lett, 2011).

Tests used:
HCT-116 = test: Cytotoxicity against human HCT116 cells assessed as inhibition of cell proliferation after 72 hrs by MTT assay; type: functional, cell-based; settings: HCT-116, 72 h
[1] = Cytotoxicity against human MES-SA cells assessed as inhibition of cell proliferation after 72 hrs by MTT assay; type: functional, cell-based
[2] = Cytotoxicity against human MES-SA/Dx5 cells assessed as inhibition of cell proliferation after 72 hrs by MTT assay; type: functional, cell-based; settings: MES-SA/Dx5, 72 h
MES-SA = test: Resistant factor, ratio of IC50 for doxorubicin-resistant human MES-SA/Dx5 cells to IC50 for doxorubicin-sensitive human MES-SA cells; type: functional

| SMILES | IC50 (HCT-116) [µM] | IC50 [1] [µM] | IC50 [2] [µM] | Ratio IC50 (MES-SA) |
| --- | --- | --- | --- | --- |
| COc1cccc2c1C(=O)c1c(O)c3c(c(O)c1C2=O)C[C@@](O)(C(=O)CO)C[C@@H]3O[C@H]1C[C@H](N)[C@H](O)[C@H](C)O1 [DOXORUBICIN] | 0.16 | 0.03 | 2.4 | 79.93 |
| O=[N+]([O-])c1ccc2c3c(n(CCN4CCCCC4)cc13)-c1ccccc1S2 | 8.09 | 16.7 | 9.16 | 0.55 |
| O=[N+]([O-])c1ccc2c3c(n(CCN4CCCC4)cc13)-c1ccccc1S2(=O)=O | 7.04 | 2.3 | 1.45 | 0.63 |
| O=[N+]([O-])c1ccc2c3c(n(CCN4CCCC4)cc13)-c1ccccc1S2 | 1.15 | 1.72 | 2.15 | 1.25 |
| CCN(CC)CCn1cc2c([N+](=O)[O-])ccc3c2c1-c1ccccc1S3 | 2.14 | 1.93 | 5.08 | 2.63 |
| CN(C)CCn1cc2c([N+](=O)[O-])ccc3c2c1-c1ccccc1S3 | 2.1 | 4.44 | 1.7 | 0.38 |
| CCN(CC)CCn1cc2c([N+](=O)[O-])ccc3c2c1-c1ccccc1S3(=O)=O | 6.02 | 3.98 | 2.61 | 0.66 |
| CCN(CC)CCNc1ccc2c3c(n(CCN(CC)CC)cc13)-c1ccccc1S2(=O)=O | 60.4 | 68.2 | > 100 | – |
| O=C1c2c(O)ccc(O)c2C(=O)c2c(NCCNCCO)ccc(NCCNCCO)c21 [MITOXANTRONE] | 0.022 | 0.012 | 0.08 | 6.67 |
| CN(C)CCn1cc2c([N+](=O)[O-])ccc3c2c1-c1ccccc1S3(=O)=O | 5.42 | 3.52 | 5.18 | 1.47 |
| O=[N+]([O-])c1ccc2c3c(n(CCN4CCCCC4)cc13)-c1ccccc1S2(=O)=O | 5.47 | 3.98 | 2.55 | 0.64 |
